Laboratory results taken from publication PMC2790922 (Molecular pharmaceutics, 2009).

Assays:
[1] = target: T1, human recombinant active MMP-2 (Homo sapiens, UniProt P08253); assay: Cleavage of peptides by purified active MMP-2; assay type: biochemical; details: 10 µM GM6001; 9 nM active MMP-2; 37°C, 2 h; FAM fluorescence
T1 sequence (P08253 110-660): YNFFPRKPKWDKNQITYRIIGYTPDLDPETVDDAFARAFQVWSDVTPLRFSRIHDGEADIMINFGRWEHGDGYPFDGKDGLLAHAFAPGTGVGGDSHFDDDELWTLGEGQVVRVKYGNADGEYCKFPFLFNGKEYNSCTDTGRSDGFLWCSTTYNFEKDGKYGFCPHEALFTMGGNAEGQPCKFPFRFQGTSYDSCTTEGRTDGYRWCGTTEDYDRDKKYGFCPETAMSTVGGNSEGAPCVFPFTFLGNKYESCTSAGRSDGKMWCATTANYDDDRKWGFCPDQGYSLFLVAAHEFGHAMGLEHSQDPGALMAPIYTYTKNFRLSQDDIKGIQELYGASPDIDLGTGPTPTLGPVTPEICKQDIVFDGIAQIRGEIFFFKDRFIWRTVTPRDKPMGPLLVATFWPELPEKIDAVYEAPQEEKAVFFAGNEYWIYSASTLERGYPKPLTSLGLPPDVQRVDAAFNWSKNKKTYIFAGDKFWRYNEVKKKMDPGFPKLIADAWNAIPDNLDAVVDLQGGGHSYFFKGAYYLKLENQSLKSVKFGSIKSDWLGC

MMP-2 from HUVECs = assay: Peptide cleavage by MMP-2 in PMA-treated HUVECs culture; assay type: cell-based, human; details: 25 µM GM6001, 30 min pre-treatment; 10 µM MMP-RGD; 24 h; p = 0.041

SMILES: CNC(=O)[C@H](Cc1c[nH]c2ccccc12)NC(=O)[C@@H](CC(=O)NO)CC(C)C [GM6001]
- inhibition of cleavage of MMP-RGD and MMP-control by purified MMP-2 [1]: inhibited
- inhibition of cleavage of MMP-RGD by PMA-treated HUVECs (MMP-2 from HUVECs): inhibited
